Laboratory results: patent US8486979B2, “1,2,4 oxadiazole compounds and methods of use thereof” (AbbVie Inc., priority 2006, dated 2013)
Blank lines part the entries; values can stand above or below the compound they belong to.

Assays:
[1] = tested on: nerve injury induced mechanical allodynia; test: Chung model of neuropathic pain (L5-L6 spinal nerve ligation, tactile allodynia, von Frey); assay type: in vivo; settings: rat
Procedure: Animals: Male Sprague-Dawley rats (Charles River, Wilmington, Mass.) weighing 120-150 grams at time of surgery were utilized. These animals were group housed in AAALAC approved facilities at Abbott Laboratories in a temperature-regulated environment with lights on between 0700 and 2000 hours. Food and water was available ad libitum except during testing. All animal handling and experimental protocols were approved by an institutional animal care and use committee (IACUC). All experiments were performed during the light cycle.
Chemicals: 5-[(2R)-Azetidin-2-ylmethoxy]-2-chloropyridine (Compound A, 1-100 nmol/kg) and 3-(3-pyridin-3-yl)-1,2,4-oxadiazol-5-yl)benzonitrile (α4β2 PAM Compound 1, 1-35 μmol/kg, i.p.) was used. Compound A and D was prepared in saline and injected in solution in a volume of 2 ml/kg body weight 30 minutes before behavioral evaluation. Compound 1,3-(3-(pyridin-3-yl)-1,2,4-oxadiazol-5-yl)benzonitrile, was prepared in 30% hydroxybetacyclodextrin and injected in solution in a volume of 4 ml/kg body weight immediately before Compound A. For studies with Compound D, the doses tested ranged from 0.3-30 μmol/kg i.p.
Experimental Procedure: To produce neuropathic pain, tight ligation of the L5-L6 spinal nerves was performed. As previously described in detail by Kim and Chung (Kim S H and Chung J M (1992), Pain 50: 355), following sterilization procedures, a 1.5 cm incision was made dorsal to the lumbosacral plexus. The paraspinal muscles (left side) were separated from the spinous processes, the L5 and L6 spinal nerves isolated, and tightly ligated with 3-0 silk thread. Following hemostasis, the wound was sutured and coated with antibiotic ointment. The rats were allowed to recover and then placed in a cage with soft bedding for 7-14 days before behavioral testing for mechanical allodynia.
Tactile allodynia was measured using calibrated (force; g) von Frey filaments (Stoelting, Wood Dale, Ill.). Briefly, rats were placed into individual plexiglass containers and allowed to acclimate for 15-20 minutes before testing. Withdrawal threshold was determined by increasing and decreasing stimulus intensity and estimated using a Dixon non-parametric test (Chaplan et al., 1994; Chaplan S R, Bach F W, Pogrel J W, Chung J M and Yaksh T L (1994) J Neurosci Methods 53:55-63). Only rats with threshold scores ≦4.5 g were considered allodynic and utilized in further testing. A percent of maximal possible effect (% M.P.E.) of the tested compounds was calculated according to the formula: ([post-drug threshold]−[baseline threshold])/([maximum threshold]−[baseline threshold])×100%, where maximum threshold was equal to 15 g.
Statistical analysis: Analysis of the in vivo data was carried out using analysis of variance. Where appropriate, Bonferroni's Multiple Comparison Test was used for post-hoc analysis. The level of significance was set at p less than 0.05. Data are presented as mean ±S.E.M.

[2] = target: T1, human α4β2 nicotinic acetylcholine receptor (Homo sapiens, UniProt P17787+P43681); test: Calcium flux (FLIPR) assay, HEK-293 cells expressing human α4β2 nAChR; assay type: cell-based; settings: for calcium response of partial agonist alone: without PAM; for calcium response of partial agonist co-applied with PAM: co-applied with PAM Compound 1, α4β2 nAChRs
T1 construct: expressed in transfected cells
T1 sequence (P43681 29-627 limits assumed): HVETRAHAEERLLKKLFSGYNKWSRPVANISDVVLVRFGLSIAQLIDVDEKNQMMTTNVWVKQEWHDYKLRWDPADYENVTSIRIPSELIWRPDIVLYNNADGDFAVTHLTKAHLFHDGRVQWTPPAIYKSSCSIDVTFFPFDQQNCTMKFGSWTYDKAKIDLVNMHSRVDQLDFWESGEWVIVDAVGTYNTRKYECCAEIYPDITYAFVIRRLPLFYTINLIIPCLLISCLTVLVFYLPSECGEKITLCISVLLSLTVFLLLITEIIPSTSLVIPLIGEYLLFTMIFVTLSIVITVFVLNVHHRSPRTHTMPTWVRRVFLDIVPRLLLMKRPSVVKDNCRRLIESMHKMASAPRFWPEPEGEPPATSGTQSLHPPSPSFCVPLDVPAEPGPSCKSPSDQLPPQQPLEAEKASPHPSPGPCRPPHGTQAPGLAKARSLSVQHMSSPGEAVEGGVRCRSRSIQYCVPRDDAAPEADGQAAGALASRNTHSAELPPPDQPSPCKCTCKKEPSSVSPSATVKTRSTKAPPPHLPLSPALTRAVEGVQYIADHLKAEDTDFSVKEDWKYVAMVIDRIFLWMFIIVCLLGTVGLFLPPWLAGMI
T1 sequence (P17787 26-502): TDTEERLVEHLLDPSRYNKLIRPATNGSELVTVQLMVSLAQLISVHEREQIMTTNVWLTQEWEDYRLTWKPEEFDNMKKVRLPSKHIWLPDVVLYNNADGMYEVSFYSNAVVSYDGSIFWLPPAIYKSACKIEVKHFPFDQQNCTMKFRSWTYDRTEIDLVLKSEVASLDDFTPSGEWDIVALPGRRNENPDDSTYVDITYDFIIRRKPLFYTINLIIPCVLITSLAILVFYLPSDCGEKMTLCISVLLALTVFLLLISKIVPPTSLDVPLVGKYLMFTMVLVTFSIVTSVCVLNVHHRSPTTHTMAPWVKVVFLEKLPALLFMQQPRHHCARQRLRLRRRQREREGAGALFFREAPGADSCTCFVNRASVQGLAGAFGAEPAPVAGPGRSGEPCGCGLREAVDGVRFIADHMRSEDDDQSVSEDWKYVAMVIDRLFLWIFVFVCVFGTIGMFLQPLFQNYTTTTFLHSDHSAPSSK
Procedure: (§1) Experimental Procedure: Human embryonic kidney (HEK) 293 cells stably expressing human α4β2 or α3β4 combinations are grown to confluency in 162 cm^2 tissue culture flasks in DMEM media supplemented with 10% FBS and 25 μg/ml zeocin and 200 μg/ml hygromycin B. IMR-32 neuroblastoma cells (ATCC) are grown to confluency in 162 cm^2 tissue culture flasks in minimum essential media supplemented with 10% FBS and 1 mM sodium pyruvate, 1% non-essential amino acids and 1% antibiotic-antimycotic. The cells are then dissociated using cell dissociation buffer and 100-150 μl per well of 3.5×10^5 cells/ml cell suspension (˜50,000-100,000 cells/well) was plated into 96-well black plates (poly-D-lysine precoated) with clear bottom and maintained for 24-48 hours in a tissue culture incubator at 37° C. under an atmosphere of 5% CO2: 95% air. Other clonal cell lines or primary cell cultures that express endogenous α4* nicotinic receptors may also be used in this assay. Calcium flux was measured using calcium-3 assay kit (Molecular Devices, Sunnyvale, Calif.) or fluo-4 (Invitrogen). A stock solution of the dye was prepared by dissolving each vial supplied by the vendor in Hank's balanced salt solution buffer (HBSS) or 150 mM NMDG, 20 mM CaCl2 containing 10 mM HEPES, The stock solution was diluted 1:20 using the same buffer before use. The growth media was removed from the cells. The cells were loaded with 100 μl of the dye per well and incubated at room temperature for up to one hour for HEK 293 clonal stable cell lines or 30 minutes-45 minutes at 37° C. for IMR-32 cells Fluorescence measurements were read simultaneously from all the wells by a Fluorometic Imaging Plate Reader (FLIPR) at an excitation wavelength of 480 nm and an emission wavelength of 520 nm. Baseline fluorescence was measured for the first 6 seconds at which 3× concentrations of modulator/test compounds were added to the cell plate at 50 μl and incubated for five minutes. The fluorescence intensity was captured every second for the first 1 minute followed by every 5 seconds for an additional 4 minutes. This procedure was followed by 50 μl of 4× concentration of agonist and readings were taken for a period of 3-5 minutes as described above. Data was normalized to maximal responses and plotted as a function of concentration. The concentration dependence of changes fluorescence responses was fitted by nonlinear regression analysis (GraphPad Prism, San Diego, Calif.) to obtain EC50 values.
The positive allosteric modulator effects on α4β2 nAChRs exemplified by 3-(3-pyridin-3-yl-1,2,4-oxadiazol-5-yl)benzonitrile (Compound 1) and 3,5-di(pyridin-3-yl)-1,2,4-oxadiazole (Compound 2) can be identified by measuring their potentiating effect to fluorescence changes in intracellular calcium using a fluorimetric plate reader. The potentiating effect of an α4β2 modulator on α4β2 receptor can also be illustrated by concentration responses to α4β2 agonists, for example 5-[(2R)-azetidin-2-ylmethoxy]-2-chloropyridine (Compound A) and (3R)-1-pyridin-3-ylpyrrolidin-3-amine (Compound B), in presence of a fixed concentration of PAM. […] In addition to compound A and B, other known nicotinic agonists can be left-shifted in presence of α4β2 PAM such as […]. […] This could lead to preferential effects of the agonist at the desired subtype, viz., α4β2, without effects at other nicotinic receptor subtypes and thus enhancing in vivo selectivity of the agonist.
The activity (allosteric effects—potentiation of fluorescence responses) ranges are defined as follows; “a” denotes as activity range from 200-400%, “b” denotes an activity range from 150-200%, “c” denotes an activity range from 120-150% and “d” denotes an activity range 90-120%. […]

[3] = target: T2, human α3β4 nicotinic acetylcholine receptor (Homo sapiens, UniProt P30926+P32297); test: Calcium flux (FLIPR) assay, HEK-293 cells expressing human α3β4 nAChR; assay type: cell-based; settings: for calcium response of partial agonist co-applied with PAM: co-applied with PAM Compound 1, α3β4 nAChRs
T2 construct: expressed in transfected cells
T2 sequence (P32297 32-505): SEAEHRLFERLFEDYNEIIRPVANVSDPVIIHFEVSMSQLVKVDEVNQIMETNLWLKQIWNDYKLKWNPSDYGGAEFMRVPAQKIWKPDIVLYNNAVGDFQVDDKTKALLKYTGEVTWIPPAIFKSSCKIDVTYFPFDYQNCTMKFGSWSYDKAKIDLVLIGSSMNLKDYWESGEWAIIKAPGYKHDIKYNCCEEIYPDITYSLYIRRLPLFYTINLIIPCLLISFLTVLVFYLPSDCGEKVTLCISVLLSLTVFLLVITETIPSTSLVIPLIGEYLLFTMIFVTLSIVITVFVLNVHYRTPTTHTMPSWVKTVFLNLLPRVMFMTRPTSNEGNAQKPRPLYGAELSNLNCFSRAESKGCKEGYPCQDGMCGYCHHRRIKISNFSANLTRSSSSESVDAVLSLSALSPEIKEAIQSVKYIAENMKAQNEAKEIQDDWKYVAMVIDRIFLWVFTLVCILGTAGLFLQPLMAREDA
T2 sequence (P30926 22-498): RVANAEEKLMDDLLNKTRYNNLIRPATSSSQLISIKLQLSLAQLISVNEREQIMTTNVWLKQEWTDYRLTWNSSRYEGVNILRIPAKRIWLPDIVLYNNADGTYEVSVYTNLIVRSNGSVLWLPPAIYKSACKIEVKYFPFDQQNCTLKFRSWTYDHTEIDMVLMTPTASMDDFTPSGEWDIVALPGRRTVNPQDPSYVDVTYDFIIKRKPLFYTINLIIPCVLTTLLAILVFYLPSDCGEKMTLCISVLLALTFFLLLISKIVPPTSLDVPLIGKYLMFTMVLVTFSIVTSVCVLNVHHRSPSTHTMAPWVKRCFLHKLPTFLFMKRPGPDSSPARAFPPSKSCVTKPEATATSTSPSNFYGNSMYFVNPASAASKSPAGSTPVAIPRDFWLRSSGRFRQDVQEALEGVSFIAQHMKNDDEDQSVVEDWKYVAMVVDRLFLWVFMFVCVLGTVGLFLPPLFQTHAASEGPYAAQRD
Procedure: as §1, with “A stock solution of the dye was prepared by dissolving each vial supplied by the vendor in Hank's balanced salt solution buffer (HBSS) or 150 mM NMDG, 20 mM CaCl2 containing 10 mM HEPES, The stock solution was diluted 1:20 using the same buffer before use. The growth media was removed from the cells.” left out, “Data was normalized to maximal responses and plotted as a function of concentration.” left out, “values. […]” for “values.”

emesis = test: Emesis in ferrets; assay type: in vivo; settings: ferret
Procedure: Fasted male ferrets (Marshall BioResources, North Rose, N.Y.) weighing between 1.0 and 1.7 kg are used to determine the emetic effects. α4β2 PAM (Compound 1) was administered first and thirty minutes later, Compound A was administered at various doses. […] The percentage of animals that experienced emesis at a given dose was recorded.

[4] = target: T3, α4β2 nAChR modulator site (Homo sapiens, UniProt P17787+P43681); test: [3H]-POB binding, membrane enriched fractions from human cortex; settings: saturation binding, human frontal cortex membranes, 4° C.
T3 construct: membrane enriched fractions from human cortex (ABS Inc., Wilmington, Del.); tissue ABS Inc., Wilmington, Del; host or cells: human cortex (frontal cortex) membrane enriched fractions
T3 sequence (P43681 29-627 limits assumed): as the sequence (P43681 29-627 limits assumed) above
T3 sequence (P17787 26-502): as the sequence (P17787 26-502) above
Procedure: [^3H]-POB ([^3H]-3-(5-(pyridin-3-yl)-1,2,4-oxadiazol-3-yl)benzonitrile) binding to a α4β2 nAChR modulator site was determined using membrane enriched fractions from human cortex (ABS Inc., Wilmington, Del.). Pellets were thawed at 4° C., washed and resuspended with a Polytron at a setting of 7 in 30 volumes of BSS-Tris buffer (120 mM NaCl, 5 mM KCl, 2 mM CaCl2, 2 mM MgCl2, and 50 mM Tris-Cl, pH 7.4, 4° C.). For saturation binding isotherms, eight concentrations of [^3H]-POB (10-250 nM) in quadruplicate and homogenate containing 100-200 μg of protein were incubated in a final volume of 500 μL for 75 minutes at 4° C. Non-specific binding was determined in the presence of 30 μM unlabeled 3-(5-(pyridin-3-yl)-1,2,4-oxadiazol-3-yl)benzonitrile. Under these conditions, saturable binding of [^3H]-POB binding was measured in membrane enriched fractions from human frontal cortex (FIG. 10). […]
For use in concentration-inhibition assays, seven log-dilution concentrations of test compounds containing 100-200 μg of protein, and 50 nM [^3H]-POB (16.4 Ci/mmol) were incubated in a final volume of 500 μL for 75 minutes at 4° C. in duplicate. Non-specific binding was determined in the presence of 30 μM 3-(5-(pyridin-3-yl)-1,2,4-oxadiazol-3-yl)benzonitrile. […] IC50 values were determined by nonlinear regression in Microsoft® Excel or Assay Explorer. […]

[5] = Compound 1 3.5 μmol/kg with various doses of Compound A

SMILES: c1ccc2ncc(N3C[C@@H]4CN[C@@H]4C3)cc2c1 [Compound D, (1S,5S)-3-(3,6-diaza-bicyclo[3.2.0]hept-3-yl)-quinoline]
efficacy in neuropathic pain, administered alone ([1]; alone): ineffective in reversing neuropathic pain | efficacy in neuropathic pain, co-dosed with α4β2 PAM ([1]; co-dosed with Compound 1): significant relief of neuropathic pain | calcium response of partial agonist alone [2]: does not evoke a response | calcium response of partial agonist co-applied with PAM [2]: evoked robust responses | calcium response of partial agonist co-applied with PAM [3]: not at α3β4 nAChRs

SMILES: N#Cc1cccc(-c2nc(-c3cccnc3)no2)c1 [Example 1, 3-(3-(pyridin-3-yl)-1,2,4-oxadiazol-5-yl)benzonitrile]
shift of emesis dose response curve of Compound A (emesis; [5]): does not shift the dose response curve of Compound A | emesis (emesis; alone): does not cause emesis | mechanical paw withdrawal threshold (PWT) ([1]; 10 mg/kg, i.p., alone): 3.3 ± 0.4 g | shift of neuropathic pain dose response curve of Compound A [1, 5]: left-shifting the dose response curve of Compound A | efficacy in neuropathic pain, administered alone ([1]; alone): ineffective | Activity (allosteric effects—potentiation of fluorescence responses) ([2]; α4β2 positive allosteric modulation, calcium fluorescence (FLIPR)): a (“a” denotes as activity range from 200-400%) | effect of PAM on concentration responses to the agonists ([3]; cells expressing α3β4, agonists Compound A and Compound B): unable to affect the concentration responses to the agonists

Bmax [4]: 2900±500 fmol/mg protein | Kd [4]: 60 ± 16 nM
SMILES: [3H]c1cncc(-c2nc(-c3cccc(C#N)c3)no2)c1 [Example 135, [^3H]-3-(5-(pyridin-3-yl)-1,2,4-oxadiazol-3-yl)benzonitrile]

calcium response of partial agonist alone [2]: does not evoke a calcium response | calcium response of partial agonist co-applied with PAM [2]: evoked robust responses | calcium response of partial agonist co-applied with PAM [3]: not at α3β4 nAChRs
SMILES: Cc1ncccc1OC[C@@H]1CCCN1 [Compound C, 2-methyl-3-(2-(S)-pyrrolidinylmethoxy)pyridine, reference compound]
